Experimental data from ChEMBL document CHEMBL1777705, “Naphthol derivatives as TRPV1 inhibitors for the treatment of urinary incontinence” (Bioorg Med Chem Lett, 2011).
≈ marks a conversion by molar mass, not a printed value.

How the values were obtained:
[1] = target: Transient receptor potential cation channel subfamily V member 1 (Homo sapiens, UniProt Q8NER1); experiment: Antagonist activity at human TRPV1 expressed in CHO cells co-expressing aequorin and CRE-luciferase reporter gene assessed as inhibition of capsaicin-induced calcium flux; format: functional, cell-based
Chain of Transient receptor potential cation channel subfamily V member 1 (Homo sapiens, UniProt Q8NER1) (Q8NER1 whole entry): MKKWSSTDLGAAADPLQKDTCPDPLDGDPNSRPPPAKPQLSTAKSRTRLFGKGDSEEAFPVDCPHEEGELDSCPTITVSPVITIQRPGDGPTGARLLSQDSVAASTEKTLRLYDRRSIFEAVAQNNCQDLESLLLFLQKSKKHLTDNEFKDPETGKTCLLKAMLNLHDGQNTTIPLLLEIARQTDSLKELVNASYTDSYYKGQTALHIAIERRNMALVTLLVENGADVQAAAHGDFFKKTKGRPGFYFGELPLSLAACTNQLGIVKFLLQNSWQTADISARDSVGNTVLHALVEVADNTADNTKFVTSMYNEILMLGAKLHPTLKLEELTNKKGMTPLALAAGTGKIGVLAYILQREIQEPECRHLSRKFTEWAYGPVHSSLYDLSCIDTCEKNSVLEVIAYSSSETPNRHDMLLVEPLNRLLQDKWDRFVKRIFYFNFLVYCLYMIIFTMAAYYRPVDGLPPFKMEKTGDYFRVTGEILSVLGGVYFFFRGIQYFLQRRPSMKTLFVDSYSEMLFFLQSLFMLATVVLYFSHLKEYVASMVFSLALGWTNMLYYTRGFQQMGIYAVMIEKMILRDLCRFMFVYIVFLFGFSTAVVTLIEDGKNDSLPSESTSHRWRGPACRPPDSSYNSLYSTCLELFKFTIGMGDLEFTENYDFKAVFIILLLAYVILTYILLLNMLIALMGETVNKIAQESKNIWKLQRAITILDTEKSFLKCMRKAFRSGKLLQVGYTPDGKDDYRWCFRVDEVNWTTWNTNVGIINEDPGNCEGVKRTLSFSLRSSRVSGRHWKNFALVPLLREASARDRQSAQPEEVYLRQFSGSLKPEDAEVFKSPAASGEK

[2] = target: Transient receptor potential cation channel subfamily V member 1 (Rattus norvegicus, UniProt O35433); experiment: Antagonist activity at rat TRPV1 expressed in CHO cells co-expressing aequorin and CRE-luciferase reporter gene assessed as inhibition of capsaicin-induced calcium flux; format: functional, cell-based
Chain of Transient receptor potential cation channel subfamily V member 1 (Rattus norvegicus, UniProt O35433) (O35433 whole entry): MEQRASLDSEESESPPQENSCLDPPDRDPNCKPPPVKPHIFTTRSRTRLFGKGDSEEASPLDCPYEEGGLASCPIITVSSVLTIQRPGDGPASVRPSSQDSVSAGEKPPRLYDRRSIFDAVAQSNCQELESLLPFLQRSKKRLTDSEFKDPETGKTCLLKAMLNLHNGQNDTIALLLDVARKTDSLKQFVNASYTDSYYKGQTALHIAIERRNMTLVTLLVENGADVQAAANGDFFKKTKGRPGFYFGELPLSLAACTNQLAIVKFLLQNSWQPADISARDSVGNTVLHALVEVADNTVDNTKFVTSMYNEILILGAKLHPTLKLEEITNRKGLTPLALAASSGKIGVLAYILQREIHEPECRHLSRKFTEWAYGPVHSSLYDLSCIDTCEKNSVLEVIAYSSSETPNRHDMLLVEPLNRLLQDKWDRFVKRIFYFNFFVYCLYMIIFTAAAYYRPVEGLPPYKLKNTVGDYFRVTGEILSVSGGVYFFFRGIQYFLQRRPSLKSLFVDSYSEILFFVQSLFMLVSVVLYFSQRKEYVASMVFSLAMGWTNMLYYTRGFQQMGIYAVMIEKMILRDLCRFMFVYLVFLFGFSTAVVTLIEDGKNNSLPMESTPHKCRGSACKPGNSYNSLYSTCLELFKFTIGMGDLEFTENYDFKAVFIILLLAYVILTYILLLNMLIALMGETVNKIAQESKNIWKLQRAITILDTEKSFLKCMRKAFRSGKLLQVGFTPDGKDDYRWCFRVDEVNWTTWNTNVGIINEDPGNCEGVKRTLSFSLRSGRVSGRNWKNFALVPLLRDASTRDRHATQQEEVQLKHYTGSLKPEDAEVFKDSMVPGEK

[3] = test system: Rattus norvegicus; experiment: Dose normalized AUC in po dosed rat; format: ADME, organism-based; settings: in vivo
[4] = test system: Rattus norvegicus; experiment: Inhibition of capsaicin-induced micturition frequency in Sprague-Dawley rat overactive bladder model at 10 mg/kg, iv relative to control; format: functional
[5] = test system: Rattus norvegicus; experiment: Inhibition of cyclophosphamide-induced voiding frequency in iv dosed Sprague-Dawley rat cystitis model; format: functional, organism-based
[6] = test system: Rattus norvegicus; experiment: Inhibition of cyclophosphamide-induced bladder capacity in iv dosed Sprague-Dawley rat cystitis model; format: functional, organism-based
[7] = Oral bioavailability in Sprague-Dawley rat; format: ADME, organism-based; settings: in vivo
[8] = Solubility of the compound; format: physicochemical
[9] = test system: Rattus norvegicus; experiment: Inhibition of capsaicin-induced micturition frequency in Sprague-Dawley rat overactive bladder model at 3 mg/kg, iv relative to control; format: functional

Compound | IC50 [1] | IC50 [2] | further results
O=C(Cc1cccc(F)c1)Nc1cccc2ccc(O)cc12 | > 1000 nM |  | 
CSc1cccc(NC(=O)Nc2cccc3ccc(O)cc23)c1 | 3.9 nM | 7.1 nM | 
O=C(Nc1cccc(C(=O)O)c1)Nc1cccc2ccc(O)cc12 | 520 nM | 270 nM | 
CCOC(=O)c1cccc(NC(=O)Nc2cccc3ccc(O)cc23)c1 | 1.7 nM | 1.6 nM | 
O=C(Nc1cccc(C(F)(F)F)c1)Nc1cccc2ccc(O)cc12 | 3.5 nM | 4.5 nM | 
COc1cccc(NC(=O)Nc2cccc3ccc(O)cc23)c1 | 8 nM | 8.6 nM | 
O=C(Nc1ccc(Cl)c(C(F)(F)F)c1)Nc1c(Cl)c(Cl)cc2ccc(O)cc12 |  |  | AUC [3]: 84 ng·h/mL; inhibition in vivo at 10 mg/kg [4]: 55%; inhibition [5]: Dose-dependent effect; inhibition [6]: Dose-dependent effect; bioavailability [7]: 3%; solubility [8]: 0.03 µg/mL (≈ 0.0667 µM)
O=C(Nc1ccc(Cl)c(C(F)(F)F)c1)Nc1c(Cl)ccc2ccc(O)cc12 | 3.4 nM | 4.5 nM | AUC [3]: 3 ng·h/mL
O=C(NCc1cccc(O)c1)Nc1cccc(F)c1 | > 1000 nM | > 1000 nM | 
O=C(Nc1ccc(Cl)c(C(F)(F)F)c1)Nc1c(Cl)c(Br)cc2ccc(O)cc12 |  |  | AUC [3]: 477 ng·h/mL; inhibition in vivo at 3 mg/kg [9]: 88%
O=C(Nc1ccccc1C(F)(F)F)Nc1cccc2ccc(O)cc12 | 87 nM | 64 nM | 
O=C(Cc1cccc2ccc(O)cc12)Nc1ccc(Cl)c(C(F)(F)F)c1 | 34 nM |  | 
CC(=O)c1cccc(NC(=O)Nc2cccc3ccc(O)cc23)c1 | 28 nM | 39 nM | 
O=C(Nc1ccc(C(F)(F)F)cc1)Nc1cccc2ccc(O)cc12 | 5.4 nM | 4.9 nM | 
O=C(Nc1ccc(Cl)cc1Cl)Nc1cccc2ccc(O)cc12 | 12 nM | 16 nM | 
O=C(Nc1ccc(Cl)c(C(F)(F)F)c1)Nc1c(Br)c(Br)cc2ccc(O)cc12 |  |  | AUC [3]: 596 ng·h/mL; inhibition in vivo at 3 mg/kg [9]: 11%; inhibition in vivo at 10 mg/kg [4]: 65%
COc1ccc2cccc(NC(=O)Nc3ccc(Cl)c(C(F)(F)F)c3)c2c1 |  |  | AUC [3]: 114 ng·h/mL
O=C(Nc1cccc([N+](=O)[O-])c1)Nc1cccc2ccc(O)cc12 | 7.5 nM | 14 nM | 
